In patent publication US20230286925A1, “PHENYL TRIAZOLE MLL1-WDR5 PROTEIN-PROTEIN INTERACTION INHIBITOR” (HUYABIO International, LLC, priority 2022, published 2023):
Read-outs that look alike come from different tables or passages of the source.

What was measured:
MV-411 cells = assay: Anti-proliferative activity against leukemia cells (CellTiterGlo viability, 72 hrs); type: cell-based
Method: Procedure: MV-411 or Molm-13 cells were seeded into 384 well plates at 2000 cells/well density in 50 uL according plate map and were allowed to naturally sediment by waiting about 30 min in Clean Bench. Next, plated cells were centrifuged for 1 min at 1000 rpm and the excess cells were transferred into the flasks for further culture. Cells in the assay plates were incubated (at least 4 hrs) at 37° C., 5% CO2 for next process followed by adding the compounds as the plate map indicated. The tests were performed in duplicates with treatment of compounds at 10 pts 3 fold titration in 384 well plates. Taxol was as positive control while DMSO as negative control. To rule out edge effect, the wells on the edge were not seeded and therefore one 384 well plate holds 13 compounds. Cells viability was measured 72 hrs after incubation with compounds and using CellTiterGlo (promega) viability assay according to manufactory's instruction to check the ATP production in each well.
Experiments on anti-proliferative activity against leukemia cells were conducted with some of the compounds of the invention.

[1] = molecular target: MLL1-WDR5 protein-protein interaction (Homo sapiens (Human), UniProt P61964); assay: WDR5 TR-FRET assay of inhibition against MLL1-WDR5 protein-protein interaction; type: binding
Method: WDR5 TR-FRET Assay Procedure: Stock compounds were transferred to the assay plate by Echo Liquid Handler. Reactions were performed in the assay buffer (1×PBS, 300 mM NaCl, 0.5 mM TCEP, 0.1% CHAPS) containing 5 nM WDR5 protein, 10 nM peptide (Ac-ARTEVHLRKS-[Ahx-Ahx] [C]-Alexa Fluor 488-NH2) and 0.25 nM Tb-anti His antibody (Tb-Ab) in 384-well white plate (PerkinElmer) with a final volume of 20 μl. Compounds were incubated with WDR5 protein for 30 min at room temperature. Plates were covered, protected from light and incubated for 60 min at room temperature after adding the peptide and Tb-Ab. EnVision Multimode Plate Reader (PerkinElmer) was used for the TR-FRET assay with excitation wavelength at 340 nm and emission wavelength at 495 and 520 nm. The ratio of the 520/495 wavelengths were used to assess the degree of the FRET signal. IC50 was calculated by fitting the inhibition data using XLfit software to sigmoidal dose-response model.
Biphenyl compound DDO-2084 was reported to be a small molecule inhibitor that can inhibit MLL1-WDR5 protein-protein interaction, reduce MLL1 enzyme catalytic activity, and downregulate the expression of Hox and Meis-1 genes (Eur. J. Med. Chem. 2016, 124, 480-489). DDO-2084 is used as a positive control compound.

[2] = MV4-11, MV-411 human acute monocytic leukemia cell, Table 6
[3] = Table 7, read-out: WDR5 TR-FRET Assay (IC50 nM)
[4] = MV4-11, MV-411 human acute monocytic leukemia cell, Table 7
[5] = WDR5 TR-FRET, 5 nM WDR5 protein, 10 nM peptide, read-out: MLL1-WDR5 PPI inhibitory activity
[6] = MV-411 human acute monocytic leukemia cell, Table 6

| Compound | GI50 (MV-411 cells; [2]) [µM] | IC50 [1, 5] [nM] | further results |
| --- | --- | --- | --- |
| COc1cc(N2CCN(C)CC2)c(NC(=O)c2cc(N)c(F)c(C)c2Cl)cc1-n1cc(C(=O)NCCCN2CCOCC2)nn1 [DDO-2315] | 24.5 | – | – |
| C[C@@H]1CN(c2cc(F)c(-c3cnc(N4CCOCC4)nc3)cc2Nc2ncnc(Cl)c2N)C[C@H](C)N1C [DDO-2213_021, 6-chloro-N4-(4-fluoro-5-(2-morpholinopyrimidin-5-yl)-2-((3S,5R)-3,4,5-trimethylpiperazin-1-yl)phenyl)pyrimidine-4,5-diamine] | – | – | IC50 [1, 3]: 23.4 nM; GI50 (MV-411 cells; [4]): 9.01 µM |
| CC(C)N1CCN(c2ncc(-c3cc(Nc4ncnc(Cl)c4N)c(N4C[C@@H](C)N(C)[C@@H](C)C4)cc3F)cn2)CC1 [DDO-2213_027, 6-chloro-N4-(4-fluoro-5-(2-(4-isopropylpiperazin-1-yl)pyrimidin-5-yl)-2-((3S,5R)-3,4,5-trimethylpiperazin-1-yl)phenyl)pyrimidine-4,5-diamine] | – | – | IC50 [1, 3]: 31.3 nM; GI50 (MV-411 cells; [4]): 6.56 µM |
| C[C@@H]1CN(c2cc(F)c(-c3ccnc(N(C)C)n3)cc2Nc2ncnc(Cl)c2N)C[C@H](C)N1C [DDO-2213_028, 6-chloro-N4-(5-(2-(dimethylamino)pyrimidin-4-yl)-4-fluoro-2-((3S,5R)-3,4,5-trimethylpiperazin-1-yl)phenyl)pyrimidine-4,5-diamine] | – | – | IC50 [1, 3]: 51.8 nM; GI50 (MV-411 cells; [4]): > 200 µM |
| C[C@H]1CN(c2cc(F)c(-c3ccnc(OCC4CC4)c3)cc2Nc2ncnc(Cl)c2N)CCN1C [DDO-2213_008, (S)-6-chloro-N4-(5-(2-(cyclopropylmethoxy)pyridin-4-yl)-2-(3,4-dimethylpiperazin-1-yl)-4-fluorophenyl)pyrimidine-4,5-diamine] | – | – | IC50 [1, 3]: 8.63 nM; GI50 (MV-411 cells; [4]): 4.76 µM |
| Cc1c(F)ccc(C(=O)Nc2cc(-n3cc(C(=O)NCCCN4CCOCC4)nn3)c(F)cc2N2CCN(C)CC2)c1Cl [HYBI_053] | – | 19.4 | GI50 (MV-411 cells; [6]): 5.69 µM |
| C[C@H]1CN(c2cc(F)c(-c3ccc(C(=O)N(C)C)cc3)cc2Nc2ncnc(Cl)c2N)CCN1C [DDO-2213_001, (S)-5′-((5-amino-6-chloropyrimidin-4-yl)amino)-4′-(3,4-dimethylpiperazin-1-yl)-2′-fluoro-N,N-dimethyl-[1,1′-biphenyl]-4-carboxamide] | – | – | IC50 [1, 3]: 11.1 nM; GI50 (MV-411 cells; [4]): 11.6 µM |
| C[C@@H]1CN(c2cc(F)c(-c3ccnc(OCC4CC4)c3)cc2Nc2ncnc(Cl)c2N)C[C@H](C)N1C [DDO-2213_009, 6-chloro-N4-(5-(2-(cyclopropylmethoxy)pyridin-4-yl)-4-fluoro-2-((3S,5R)-3,4,5-trimethylpiperazin-1-yl)phenyl)pyrimidine-4,5-diamine] | – | – | IC50 [1, 3]: 33.9 nM; GI50 (MV-411 cells; [4]): 1.69 µM |
| CN1CCN(c2ccc(-n3cc(C(=O)NCCCN4CCOCC4)nn3)cc2NC(=O)c2cc(O)cc(F)c2F)CC1 [HYBI_047] | 16.8 | 466 | – |
| Cc1c(F)c(N)cc(C(=O)Nc2cc(-n3cc(C(=O)OCC(C)C)nn3)ccc2N2CCN(C)CC2)c1Cl [HYBI_003, isobutyl 1-(3-(5-amino-2-chloro-4-fluoro-3-methylbenzamido)-4-(4-methylpiperazin-1-yl)phenyl)-1H-1,2,3-triazole-4-carboxylate] | 3.41 | 15.6 | – |
| CN1CCN(c2ccc(-n3cc(C(=O)NCCCN4CCOCC4)nn3)cc2NC(=O)c2ccc(O)cc2C(F)(F)F)CC1 [HYBI_043] | 76 | – | – |
| Cc1c(F)ccc(C(=O)Nc2cc(-n3cc(C(=O)NCCCN4CCOCC4)nn3)ccc2N2CCN(C)CC2)c1Cl [HYBI_038] | 17.5 | 185 | – |
| Cc1c(F)c(N)cc(C(=O)Nc2cc(-n3cc(C(=O)NC4CCN(C)CC4)nn3)c(F)cc2N2C[C@@H](C)N(C)[C@@H](C)C2)c1Cl [HYBI_087] | > 200 | 2.6 | – |
| Cc1c(F)c(N)cc(C(=O)Nc2cc(-n3cc(C(=O)OCC4CCN(C)CC4)nn3)ccc2N2CCN(C)CC2)c1Cl [HYBI_016] | 7.1 | 20.6 | – |
| CCOC(=O)[C@H](C)OC(=O)c1cn(-c2ccc(N3CCN(C)CC3)c(NC(=O)c3cc(N)c(F)c(C)c3Cl)c2)nn1 [HYBI_013] | 2.46 | 19.4 | – |
| Cc1c(F)c(N)cc(C(=O)Nc2cc(-n3cc(C(=O)OC4(C)CCC4)nn3)ccc2N2CCN(C)CC2)c1Cl [HYBI_018] | 5.99 | 16.8 | – |
| Cc1c(F)c(N)cc(C(=O)Nc2cc(-n3cc(C(=O)NCCCN4CCOCC4)nn3)c(F)cc2N2CCN(C)[C@H](C)C2)c1Cl [DDO-2313] | 40.9 | – | – |
| CN1CCN(c2ccc(-n3cc(C(=O)NCCCN4CCOCC4)nn3)cc2NC(=O)c2cc(O)cc(C(F)(F)F)c2)CC1 [HYBI_046] | 10.5 | 271 | – |

| Compound | GI50 (MV-411 cells; [2]) [µM] | IC50 [1, 5] [nM] | further results |
| --- | --- | --- | --- |
| Cc1c(F)c(N)cc(C(=O)Nc2cc(-n3cc(C(=O)NCCCN4CCOCC4)nn3)c(F)cc2N2CCN(C)CC2)c1Cl [HYBI_023] | 32 | 19.8 | – |
| CN1CCN(c2ccc(-n3cc(C(=O)NCCCN4CCOCC4)nn3)cc2NC(=O)c2cc(Cl)cc(Cl)c2)CC1 [HYBI_045] | 4.15 | 384 | – |
| C[C@@H]1CN(c2cc(F)c(-c3ccc(C(=O)N(C)C)cc3)cc2Nc2ncnc(Cl)c2N)C[C@H](C)N1C [DDO-2213_002, 4-[5-[(5-amino-6-chloro-pyrimidin-4-yl)amino]-2-fluoro-4-[(3R,5S)-3,4,5-trimethylpiperazin-1-yl]phenyl]-N,N-dimethyl-benzamide] | – | – | IC50 [1, 3]: 55.5 nM; GI50 (MV-411 cells; [4]): 15.6 µM |
| Cc1c(F)c(N)cc(C(=O)Nc2cc(-n3cc(C(=O)NCCCN4CCN(C)CC4)nn3)c(F)cc2N2C[C@@H](C)N(C)[C@@H](C)C2)c1Cl [HYBI_101] | 10.5 | 3.65 | – |
| 1-(3-(5-amino-2-chloro-4-fluoro-3-methylbenzamido)-4-(4-methylpiperazin-1-yl)phenyl)-N-(2-ethoxyethyl)-1H-1,2,3-triazole-4-carboxamide [HYBI_002] | – | 44.2 | GI50 (MV-411 cells; [6]): 6.31 µM |
| CN1CCN(c2ccc(-n3cc(C(=O)NCCCN4CCOCC4)nn3)cc2NC(=O)c2ccc(F)c(C(F)(F)F)c2)CC1 [HYBI_042] | 4.75 | 802 | – |
| C[C@@H]1CN(c2cc(F)c(-c3ccc(OCC4CC4)nc3)cc2Nc2ncnc(Cl)c2N)C[C@H](C)N1C [DDO-2213_022, 6-chloro-N4-(5-(6-(cyclopropylmethoxy)pyridin-3-yl)-4-fluoro-2-((3S,5R)-3,4,5-trimethylpiperazin-1-yl)phenyl)pyrimidine-4,5-diamine] | – | – | IC50 [1, 3]: 41.2 nM; GI50 (MV-411 cells; [4]): 3.68 µM |
| Cc1c(F)c(N)cc(C(=O)Nc2cc(-n3cc(C(=O)N4CCOCC4)nn3)c(F)cc2N2C[C@@H](C)N(C)[C@@H](C)C2)c1Cl [HYBI_083] | 40.2 | 3.08 | – |
| Cc1c(F)c(N)cc(C(=O)Nc2cc(-n3cc(C(=O)NCCCN4CCOCC4)nn3)ccc2N2CCN(C)C(C)C2)c1Cl (stereo not shown) [DDO-2306] | 7.11 | – | – |
| Cc1c(F)c(N)cc(C(=O)Nc2cc(-n3cc(C(=O)N(C)CCCN4CCOCC4)nn3)ccc2N2CCN(C)CC2)c1Cl [HYBI_019] | 27.1 | 20.4 | – |
| CC(C)NC(=O)c1ccc(-c2cc(Nc3ncnc(Cl)c3N)c(N3C[C@@H](C)N(C)[C@@H](C)C3)cc2F)cc1 [DDO-2213_004, 5′-((5-amino-6-chloropyrimidin-4-yl)amino)-2′-fluoro-N-isopropyl-4′-((3S,5R)-3,4,5-trimethylpiperazin-1-yl)-[1,1′-biphenyl]-4-carboxamide] | – | – | IC50 [1, 3]: 68.8 nM; GI50 (MV-411 cells; [4]): 14.8 µM |
| Cc1c(F)c(N)cc(C(=O)Nc2cc(-n3cc(C(=O)N(C)CCCO)nn3)ccc2N2CCN(C)CC2)c1Cl [HYBI_019A] | 24.9 | 17.1 | – |
| Cc1c(F)c(N)cc(C(=O)Nc2cc(-n3cc(C(=O)NCCCN4CCOCC4)nn3)c(F)cc2N2CCN(C)[C@@H](C)C2)c1Cl [DDO-2312] | 24.5 | – | – |
| Cc1c(F)c(N)cc(C(=O)Nc2cc(-n3cc(C(=O)OCC4(C)CCCCC4)nn3)ccc2N2CCN(C)CC2)c1Cl [HYBI_014] | 2.62 | – | – |
| COC(=O)c1cn(-c2cc(NC(=O)c3cc(N)c(F)c(C)c3Cl)c(N3CCN(C)CC3)cc2F)nn1 [DDO-2316] | 25.4 | – | – |
| Cc1c(F)c(N)cc(C(=O)Nc2cc(-n3cc(C(=O)NCCCN4CCOCC4)nn3)ccc2N2CCN(C)[C@H](C)C2)c1Cl [DDO-2308] | 9.29 | – | – |
| Cc1cc(C(=O)Nc2cc(-n3cc(C(=O)NCCCN4CCOCC4)nn3)ccc2N2CCN(C)CC2)ccc1F [HYBI_041] | 13.2 | – | – |
